Results published in ChEMBL document CHEMBL5620368, “Molecular-level strategic goals and repressors in Leishmaniasis - Integrated data to accelerate target-based heterocyclic scaffolds” (Eur J Med Chem, 2023).
Values after ≈ are worked out from the molar mass of the structure shown.

What was measured:
Leishmania mexicana = experiment: Antileishmanial activity against Leishmania mexicana promastigotes MHOM/B2/62/BEL21 assessed as reduction in parasite growth by tryphan blue staining based analysis; assay type: functional, organism-based
Leishmania infantum [1] = experiment: Antileishmanial activity against GFP-expressing Leishmania infantum intracellular amastigotes infected in human THP-1 derived macrophage cells assessed as reduction in parasite viability measured for 72 hrs by resazurin/alamar blue fluorometric assay; assay type: functional, organism-based; conditions: THP-1, 72 h
Leishmania donovani [2] = experiment: Antileishmanial activity against Leishmania donovani Ag83 amastigotes infected in BALB/c mouse macrophage assessed as cell viability incubated for 48 hrs by PI staining based analysis; assay type: functional, organism-based; conditions: Ag83, 48 h
Leishmania amazonensis [3] = experiment: Antiprotozoal activity against Leishmania amazonensis axenic amastigotes assessed as growth inhibition measured after 5 days by MTT assay; assay type: functional, organism-based; conditions: 120 h
Leishmania donovani [4] = experiment: Antileishmanial activity against Leishmania donovani promastigotes assessed as reduction in parasitic growth by MTT assay; assay type: functional, organism-based
[5] = Inhibition of recombinant rat liver arginase
[6] = Inhibition of Leishmania braziliensis DNA topoisomerase I
Leishmania infantum [7] = experiment: Inhibition of Leishmania infantum Arginase expressed in Escherichia coli BL21 (DE3) at 100 uM by enzymatic assay relative to control
Leishmania infantum [8] = experiment: Inhibition of Leishmania infantum promastigotes Arginase expressed in Escherichia coli BL21 (DE3) at 100 uM by enzymatic assay relative to control
Leishmania infantum [9] = experiment: Antileishmanial activity against Leishmania infantum MCAN/ES/ 89/IPZ229/1/89 axenic amastigotes assessed as reduction in parasite viability treated for 24 hrs by PI staining based flow cytometry; assay type: functional, organism-based; conditions: MCAN/ES/ 89/IPZ229/1/89, 24 h
Leishmania infantum [10] = experiment: Antileishmanial activity against Leishmania infantum MCAN/ES/ 89/IPZ229/1/89 promastigote assessed as reduction in parasite viability incubated for 24 hrs by PI staining based flow cytometry; assay type: functional, organism-based; conditions: MCAN/ES/ 89/IPZ229/1/89, 24 h
[11] = Inhibition of Leishmania infantum Trypanothione reductase
DNA topoisomerase I = target: T1, DNA topoisomerase I (Leishmania donovani (strain BPK282A1), UniProt E9BRC0); experiment: Inhibition of Leishmania donovani DNA topoisomerase I
T1 sequence (E9BRC0 whole entry): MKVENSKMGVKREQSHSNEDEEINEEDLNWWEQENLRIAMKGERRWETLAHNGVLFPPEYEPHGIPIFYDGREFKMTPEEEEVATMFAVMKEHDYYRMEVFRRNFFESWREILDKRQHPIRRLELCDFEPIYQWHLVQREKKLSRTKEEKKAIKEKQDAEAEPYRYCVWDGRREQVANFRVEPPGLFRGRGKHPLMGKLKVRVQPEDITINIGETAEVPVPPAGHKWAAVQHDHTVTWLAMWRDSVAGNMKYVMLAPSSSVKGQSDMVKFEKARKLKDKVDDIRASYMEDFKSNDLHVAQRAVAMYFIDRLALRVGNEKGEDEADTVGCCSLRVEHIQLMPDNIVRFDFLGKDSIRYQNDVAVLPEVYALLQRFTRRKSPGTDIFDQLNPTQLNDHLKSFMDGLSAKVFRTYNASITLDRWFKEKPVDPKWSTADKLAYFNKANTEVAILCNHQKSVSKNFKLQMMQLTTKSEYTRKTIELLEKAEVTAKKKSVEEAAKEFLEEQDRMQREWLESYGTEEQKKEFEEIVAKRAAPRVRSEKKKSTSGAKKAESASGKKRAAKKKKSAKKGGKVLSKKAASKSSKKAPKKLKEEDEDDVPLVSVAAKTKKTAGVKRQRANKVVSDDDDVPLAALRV

Arginase = Arginase (Leishmania amazonensis, UniProt O96394); experiment: Inhibition of Leishmania amazonensis Arginase
Leishmania infantum [12] = experiment: Antileishmanial activity against Leishmania infantum amastigotes assessed as inhibition of parasite growth; assay type: functional, organism-based
Leishmania donovani [13] = experiment: Antileishmanial activity against Leishmania donovani MHOM/IN/1983/AG83 promastigote assessed as reduction in parasite growth incubated for 12 hrs by MTT assay; assay type: functional, organism-based; conditions: MHOM/IN/1983/AG83, 12 h
Leishmania donovani [14] = experiment: Antileishmanial activity against Leishmania donovani promastigotes infected in hamster assessed as reduction in parasite load in spleen; assay type: functional, organism-based
Leishmania amazonensis [15] = experiment: Antileishmanial activity against Leishmania amazonensis promastigotes assessed as parasite growth inhibition incubated for 24 hrs; assay type: functional, organism-based
Trypanothione reductase = Trypanothione reductase (Leishmania donovani, UniProt P39050); experiment: Inhibition of Leishmania donovani Trypanothione reductase
Leishmania amazonensis [16] = experiment: Antileishmanial activity against Leishmania amazonensis intracellular amastigotes assessed as parasite growth inhibition; assay type: functional, organism-based
Leishmania donovani [17] = experiment: Antileishmanial activity against Leishmania donovani intracellular amastigotes assessed as parasite growth inhibition; assay type: functional, organism-based
Leishmania donovani [18] = experiment: Antileishmanial activity against Leishmania donovani promastigotes assessed as parasite growth inhibition incubated for 72 hrs by Alamar blue staining based analysis; assay type: functional, organism-based

Trypanothione reductase, sequence (P39050 whole entry): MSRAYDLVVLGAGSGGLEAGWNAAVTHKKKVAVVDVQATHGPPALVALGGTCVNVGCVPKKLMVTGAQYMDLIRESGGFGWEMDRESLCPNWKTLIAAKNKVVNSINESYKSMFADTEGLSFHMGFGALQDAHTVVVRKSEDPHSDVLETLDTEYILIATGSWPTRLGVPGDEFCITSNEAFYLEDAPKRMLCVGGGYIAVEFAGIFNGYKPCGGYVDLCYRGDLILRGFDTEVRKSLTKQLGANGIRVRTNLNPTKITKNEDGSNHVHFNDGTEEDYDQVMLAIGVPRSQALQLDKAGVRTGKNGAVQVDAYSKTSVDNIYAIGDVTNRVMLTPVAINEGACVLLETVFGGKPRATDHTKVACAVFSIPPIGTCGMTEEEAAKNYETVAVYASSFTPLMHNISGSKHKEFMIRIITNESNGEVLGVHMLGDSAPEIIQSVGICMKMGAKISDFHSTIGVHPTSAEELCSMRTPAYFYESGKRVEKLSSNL

With `CCc1ccc2c(c1)C1c3ccccc3CC1C(c1ccccn1)N2` (centres undefined) as the molecule, how does the IC50 (Leishmania mexicana) read?
The IC50 was 1 µg/mL (≈ 3.06 µM).

Which EC50 (Leishmania infantum [1]) does the source give for `O=C(Cc1cccc2ccccc12)Nc1ccc([Se][Se]c2ccc(NC(=O)c3cccc4ccccc34)cc2)cc1` here?
Its EC50 is 500 nM.

Which EC50 (Leishmania donovani [2]) does the source give for `COc1ccc([C@@H]2Cc3cc(OC)c(O)cc3[C@H](CO)[C@@H]2COC2OCC(O)[C@@H](O)[C@H]2O)cc1O` (some centres undefined) here?
Its EC50 is 1840 nM.

With `COc1c(O)ccc2c1c[n+](C)c1c3cc4c(cc3ccc21)OCO4` as the molecule, how does the IC50 (Leishmania amazonensis [3]) read?
Its IC50 is 540 nM.

For `COC(=O)c1ccc(C2OC(C)(C)C3CC(=O)C(C)C2C3)cc1` (centres undefined), which IC50 (Leishmania donovani [4]) is on record?
The IC50 was 4.9 µM.

With `O=C(O[C@@H]1Cc2c(O)cc(O)cc2O[C@@H]1c1cc(O)c(O)c(O)c1)c1cc(O)c(O)c(O)c1` [EPIGALOCATECHIN GALLATE] as the molecule, how does the IC50 [5] read?
Its IC50 is 3.8 µM.

Which IC50 [6] does the source give for `O=C1C(O)=C(C(C2=C(O)C(=O)c3ccccc3C2=O)c2ccc(F)cc2)C(=O)c2ccccc21` here?
Its IC50 is 600 nM.

With `Cc1cc2c(c(=O)[nH]1)C(=O)O/C2=C/c1ccccc1` as the molecule, how does the EC50 (Leishmania donovani [2]) read?
The EC50 was 1000 nM.

Which results are given for `COc1ccc(C(=O)/C=C/c2ccc([N+](=O)[O-])cc2)cc1`?
inhibition (Leishmania infantum [7]): 69.5%; inhibition (Leishmania infantum [8]): 70.4%

For `COC[C@@H](Cc1ccc(OC)c(OC)c1)[C@@H](COC)Cc1cc(OC)c2c(c1)OCO2`, which EC50 (Leishmania donovani [2]) is on record?
Its EC50 is 1260 nM.

Which results are given for `O=C(/C=C/c1ccc([N+](=O)[O-])cc1)c1ccc(Br)cc1`?
inhibition (Leishmania infantum [7]): 71.9%; inhibition (Leishmania infantum [8]): 55.2%

With `NCCNCc1nccn1-c1ccc(-c2nc(CCc3ccccc3-c3ccccc3)cs2)c(OCCN2CCNC2=O)c1` as the molecule, how does the EC50 (Leishmania infantum [9]) read?
The EC50 was 5.3 µM.

And the EC50 (Leishmania infantum [10])?
Its EC50 is 5.3 µM.

And the IC50 [11]?
Its IC50 is 8.6 µM.

Which IC50 (DNA topoisomerase I) does the source give for `CCCCCCCCCCCCCCCC#CC(=O)O` here?
Its IC50 is 5.3 µM.

Which IC50 (Arginase) does the source give for `CC(=O)Cc1ccccc1C(F)(F)C(=O)NNc1ccccc1` here?
Its IC50 is 12.7 µM.

Which IC50 (Leishmania infantum [12]) does the source give for `COc1cccc(C2Nc3cccnc3[C@H]3c4ccccc4C[C@@H]23)c1` (some centres undefined) here?
Its IC50 is 540 nM.

With `O=C(/C=C/c1ccc(F)cc1)c1ccccc1Cl` as the molecule, how does the inhibition (Leishmania infantum [7]) read?
Its inhibition is 72.3%.

And the inhibition (Leishmania infantum [8])?
Its inhibition is 74.1%.

With `Oc1cc(O)c2c(c1)O[C@H](c1ccc(O)c(O)c1)[C@@H](O)C2` [CIANIDANOL] as the molecule, how does the IC50 [5] read?
Its IC50 is 1.8 µM.

Which IC50 (Leishmania mexicana) does the source give for `C[C@@H]1[C@H](O)[C@@H](C)/C=C/C=C/C=C/C=C/C=C/C=C/C=C/[C@H](O[C@@H]2O[C@H](C)[C@@H](O)[C@H](N)[C@@H]2O)C[C@@H]2O[C@](O)(C[C@@H](O)C[C@@H](O)[C@H](O)CC[C@@H](O)C[C@@H](O)CC(=O)O[C@H]1C)C[C@H](O)[C@H]2C(=O)O` [AMPHOTERICIN B] here?
Its IC50 is 0.036 µg/mL (≈ 0.039 µM).

With `Cc1ccc2c(c1)C1c3ccccc3CC1C(c1ccccn1)N2` (centres undefined) as the molecule, how does the IC50 (Leishmania mexicana) read?
The IC50 was 1 µg/mL (≈ 3.2 µM).

For `COc1ccc(C(C2=C(O)C(=O)c3ccccc3C2=O)C2=C(O)C(=O)c3ccccc3C2=O)cc1`, which IC50 [6] is on record?
The IC50 was greater than 100000 nM.

For `O=c1cc(-c2ccc(O)c(O)c2)oc2cc(O)cc(O)c12` [LUTEOLIN], which IC50 (Arginase) is on record?
The IC50 was 9 µM.

Which IC50 (Leishmania donovani [13]) does the source give for `O=C1OC(c2ccc(Cl)cc2)c2cc(-c3ccc(Cl)cc3)cc(O)c21` (centres undefined) here?
The IC50 was 5.4 µM.

What about the IC50 (Leishmania donovani [14]) of the same molecule?
Its IC50 is 9.81 µM.

Which IC50 (Leishmania amazonensis [15]) does the source give for `CCN(CC)CCOC(=O)c1ccc(NCCC(=O)c2ccc([N+](=O)[O-])cc2)cc1` here?
Its IC50 is 12.4 µM.

Which IC50 [5] does the source give for `O=C(O)c1cc(O)c(O)c(O)c1` [GALLIC ACID] here?
Its IC50 is 3.8 µM.

For `O[C@H](CC1c2ccccc2-c2ccccc21)CN1CCN(C[C@H](O)C[C@@H]2c3ccc(Br)cc3-c3cc(Br)cc(Br)c32)CC1`, which IC50 (Trypanothione reductase) is on record?
The IC50 was 98.4 µM.

Which results are given for `COc1cc(C)cc2c1C(=O)C1OC1(c1c(C)cc3c(c1OC)C(=O)C1OC1C3=O)C2=O` (centres undefined)?
IC50 (Leishmania amazonensis [16]): 180 nM; IC50 (Leishmania donovani [17]): 20.7 µM; IC50 (Leishmania donovani [18]): 20.7 µM
